Patent publication US5200412A, “Heterobicyclic containing benzene sulfonamides which are platelet activating factor antagonists” (British Bio-Technology Limited, priority 1990, dated 1993)
pIC50: −log10 of the molar value.

Assays:
PAF receptor = biological target: T1, PAF receptor (Homo sapiens, UniProt P25105); experiment: inhibition of 3H-PAF binding to human platelet plasma membrane; conditions: human platelet membranes, 0.5 nM 3H-PAF, 1 hour incubation at 0° C., pH 7.0
T1 construct: Platelet concentrates were obtained from a hospital blood bank; from tissue; host or cells: human platelets (hospital blood bank concentrates), lysed platelet membrane fraction
Experimental: (§1) Compounds of general formula I inhibit PAF-induced functions in both the cellular and tissue levels by changing the PAF binding to its specific receptor site. The ability of compounds of general formula I to inhibit the binding of PAF to its specific receptor binding site on human platelet plasma membranes was measured according to Pharmacological Example 1. The ability of compounds of general formula I to reverse the hypotension caused by an infusion of PAF in rats was measured according to Pharmacology Example 2.
The inhibition of 3H-PAF binding to human platelet plasma membrane by compounds of general formula I was determined by isotopic labelling and filtration techniques. Platelet concentrates were obtained from a hospital blood bank. These platelet concentrates (500-2500 ml.) were centrifuged at 800 rpm for 10 minutes in a SORVALL RC3B centrifuge to remove the red blood cells present. (The word SORVALL is a trade mark ) The supernatant was subsequently centrifuged at 3,000 rpm in a SORVALL RC3B centrifuge to pellet the platelets present. The platelet rich pellets were resuspended in a minimum volume of buffer (150 mM NaCl, 10 mM Tris, 2 mM EDTA, pH 7.5) and layered onto Ficoll-Paque gradients, 9 ml platelet concentrate to 2 ml Ficoll, and centrifuged at 1,900 rpm for 15 minutes in a SORVALL RT6000 centrifuge. This step removes the residual red blood cells and other nonspecific material such as lymphocytes from the preparation. The platelets which form a band between the plasma and the Ficoll were removed, resuspended in the above buffer and centrifuged at 3,000 rpm for 10 minutes in a SORVALL RT6000 centrifuge. The pelleted platelets were resuspended in buffer (10 mM Tris, 5 mM MgCl2, 2 mM EDTA, pH 7.0), snap freezed in liquid N2 and allowed to thaw slowly at room temperature in order to lyse the platelets. The latter step was repeated at least 3 times to ensure proper lysis. The lysed platelets were centrifuged at 3,000 rpm for 10 minutes in a SORVALL RT6000 centrifuge and resuspended in buffer. The latter step was repeated twice in order to remove any cytoplasmic proteins which may hydrolyse the platelet activating factor (PAF) receptor The prepared platelet membranes may be stored at -70° C. After thawing the prepared membranes were centrifuged in a SORVALL RT6000 at 3,000 rpm for 10 minutes and resuspended in assay buffer.
The assay was conducted by preparing a series of Tris-buffered solutions of the selected antagonist of predetermined concentrations. Each of these solutions contained ^3 H-PAF (0.5 nM; 1-O-[^3 H]octadecyl-2-acetyl-sn-glycero-3-phosphoryl choline with a specific activity of 132 Ci/mmol), […], a known amount of the test antagonist, and a sufficient amount of Tris-buffer solution (10 mM Tris, 5 mM MgCl2, pH 7.0, 0.25% BSA) to make the final volume 1 ml. Incubation was initiated by the addition of 100 μg of the isolated membrane fraction to each of the above solutions at 0° C. Two control samples, one (Cl) which contained all the ingredients described above except the antagonist and the other (C2) contains Cl plus a 1000-fold excess of unlabelled PAF, were also prepared and incubated simultaneously with the test samples. After 1 hour incubation, each solution was filtered rapidly under vacuo through a WHATMAN GF/C glass fibre filter in order to separate unbound PAF from bound PAF. (The word WHATMAN is a trade mark.) The residue in each case was rapidly washed 4 times with 5 ml cold (4° C.) Tris-buffer solution. Each washed residue was dried under vacuum on a sampling manifold and placed into vials containing 20 ml of OPTIPHASE MP scintillation fluid and the radioactivity counted in a liquid scintillation counter. […]

PAF-induced hypotension = experiment: reversal of PAF-induced hypotension in the rat; assay type: in vivo, Male Sprague-Dawley rats; conditions: iv, anaesthetised rats, i.v. bolus, PAF 100 ng/kg/min i.v. infusion, read-out: ED50 (50% reversal of the hypotensive PAF response)
Experimental: as §1
Male Sprague-Dawley rats (300-350 g) were anaesthetised with a mixture of sodium pentobarbitone, 22.5 mg/kg and thiopental 62.5 mg/kg. Through a midline incision in the neck, the trachea was cannulated and the animals, breathed spontaneously. A carotid artery was cannulated for the measurement of blood pressure and this signal was used to trigger a rate meter to measure heart rate. Both jugular veins were cannulated: one for the infusion of PAF and the other for the bolus administration of test compounds.
PAF, 100 ng/kg/min was infused i.v. until a sustained fall in mean blood pressure of 50 mmHg was achieved. […] Also presented in Table 2 is the result for a comparative example (N-cyclohexyl-N-methyl-4-(1H-imidazo[4,5-c]pyridylmethyl)benzamide. This compound (a PAF antagonist described in EP-A-0260613) is not within the scope of the invention.

[1] = tested on: PAF-induced bronchoconstriction; experiment: inhibition of PAF-induced bronchoconstriction in the guinea pig; assay type: in vivo, Male Dunkin-Hartley guinea-pigs; conditions: 10 mg/kg p.o., 1 hour before PAF 40 ng/kg/min i.v. infusion
Experimental: The inhibition of PAF induced bronchoconstriction was measured in anaesthetised artificially ventilated guinea-pigs (450-500 g) using a modified version of the Konzett-Rossler technique (Konzett M and Rossler R, Naunym-Schmiedeb. Arch. Exp. Pathol. Pharmakol., 1940, 197, 71) Male Dunkin-Hartley guinea-pigs were anaesthetised with urethane, 1.6 g/kg. Through a midline neck incision, the trachea was cannulated and the animal ventilated with a constant tidal volume set between 5 and 15 ml, to give a tracheal inflation pressure of 15 mmHg at a rate of 40 per minute. A carotid artery was cannulated for the measurement of blood pressure and heart rate and both jugular veins were cannulated, one for the infusion of PAF and the other for the administration of test compounds. PAF, 40 ng/kg/min in saline with 0.25% bovine serum albumin, was infused i.v. to produced a 100% increase in tracheal inflation pressure, and bronchoconstrictor effects were determined. Test compounds were administered p.o. (10 mg/kg) 1 hour before the infusion of PAF was started whilst the animals were conscious.

[2] = tested on: endotoxin induced hypotension; experiment: reversal of endotoxin induced hypotension in the rat; assay type: in vivo; conditions: iv, read-out: ED50 (50% reversal of the endotoxin induced hypotension)
Experimental: Rats were anaesthetised with a mixture of sodium pentobarbitone, 22.5 mg/kg, and thiopental, 62.5 mg/kg. The animals breathed spontaneously, air enriched with oxygen, and a carotid artery was cannulated for the measurement of blood pressure and heart rate. […] Test compounds were administered i.v. via the other jugular vein as a bolus.

T1 sequence (P25105 whole entry): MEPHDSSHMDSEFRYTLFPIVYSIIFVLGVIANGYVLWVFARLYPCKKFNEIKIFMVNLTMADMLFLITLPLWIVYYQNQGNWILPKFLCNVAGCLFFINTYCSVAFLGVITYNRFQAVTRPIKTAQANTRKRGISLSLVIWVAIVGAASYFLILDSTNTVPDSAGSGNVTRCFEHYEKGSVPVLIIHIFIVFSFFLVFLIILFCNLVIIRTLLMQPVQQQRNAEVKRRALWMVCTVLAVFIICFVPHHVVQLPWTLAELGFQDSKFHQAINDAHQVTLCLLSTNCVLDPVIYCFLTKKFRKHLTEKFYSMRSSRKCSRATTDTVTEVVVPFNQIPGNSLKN

SMILES	pIC50 (PAF receptor)	ED50 (PAF-induced hypotension)	% Inhibition of PAF-induced bronchoconstriction [1]	ED50 [2]
CC[C@H](C)[C@H](NS(=O)(=O)c1ccc(Cn2c(C)nc3ccccc32)cc1)C(=O)OC [Example 6, N-4-(1H-2-Methylbenzimidazolylmethyl)phenylsulphonyl-L-isoleucine methyl ester]	7.52	–	–	–
Cc1nc2cnccc2n1Cc1ccc(S(=O)(=O)N(C)[C@@H](CC(C)C)C(=O)OC(C)C)cc1 [Example 56B, N-Methyl-N-4-(1H-2-methylimidazo[4,5-c]pyridylmethyl)phenylsulphonyl-L-leucine i-propyl ester]	–	0.6 µg/kg	72%	–
CCOC(=O)[C@H](CC(C)C)NS(=O)(=O)c1ccc(Cn2c(C)nc3ccccc32)cc1 [Example 14, N-4-(1H-2-Methylbenzimidazolylmethyl)phenylsulphonyl-L-leucine ethyl ester]	7.82	–	–	–
CCOC(=O)[C@H](CC(C)C)N(C)S(=O)(=O)c1ccc(Cn2c(C)nc3ccccc32)cc1 [Example 54, N-Methyl-N-4-(1H-2-methylbenzimidazolylmethyl)phenylsulphonyl-L-leucine ethyl ester]	8.52	–	–	–
CCCCOC(=O)[C@H](CC(C)C)N(C)S(=O)(=O)c1ccc(Cn2c(C)nc3cnccc32)cc1 [Example 57B, N-methyl-N-4-(1H-2-methylimidazo[4,5-c]pyridylmethyl)phenylsulphonyl-L-leucine n-butyl ester]	9.00	–	–	–
C=CCN([C@@H](CC(C)C)C(=O)OCC)S(=O)(=O)c1ccc(Cn2c(C)nc3cnccc32)cc1 [60(B), N-Allyl-N-4-(1H-2-methylimidazo[4,5-c]pyridylmethyl)phenylsulphonyl-L-leucine ethyl ester]	–	–	60%	–
CCOC(=O)[C@H](CC(C)C)N(CC(=O)OC(C)(C)C)S(=O)(=O)c1ccc(Cn2c(C)nc3cnccc32)cc1 [69(B), N-t-butoxycarbonylmethyl-N-4-(1H-2-methylimidazo[4,5-c]pyridylmethyl)phenylsulphonyl-L-leucine ethyl ester]	–	–	60%	–
COC(=O)[C@H](CC(C)C)NS(=O)(=O)c1ccc(Cn2c(C)nc3ccccc32)cc1 [Example 7, N-4-(1H-2-Methylbenzimidazolylmethyl)phenylsulphonyl-L-leucine methyl ester]	7.70	11.6 µg/kg	–	–
Cc1nc2cnccc2n1Cc1ccc(S(=O)(=O)N[C@@H](CC(C)C)C(=O)OCCOCc2ccccc2)cc1 [Example 43B, N-4-(1H-2methylimidazo[4,5-c]pyridylmethyl)phenylsulphonyl-L-leucine 2-benzoxyethyl ester]	9.00	–	–	–
COC(=O)[C@H](COCc1ccccc1)NS(=O)(=O)c1ccc(Cn2c(C)nc3ccccc32)cc1 [Example 12, N-4-(1H-2-Methylbenzimidazolylmethyl)phenylsulphonyl-O-benzyl-L-serine methyl ester]	–	21 µg/kg	–	–
CN(C(=O)c1ccc(Cn2cnc3cnccc32)cc1)C1CCCCC1 [Comparative Example, N-Cyclohexyl-N-methyl-4-(1H-imidazo[4,5-c]pyridylmethyl)benzamide, reference compound]	–	150 µg/kg	–	–
CCOC(=O)[C@H](CC(C)C)NS(=O)(=O)c1ccc(Cn2c(C)nc3cnccc32)cc1 [Example 35B, N-4-(1H-2-methylimidazo[4,5-c]pyridylmethyl)phenylsulphonyl-L-leucine ethyl ester]	9.70	–	–	2.9 µg/kg
CCOC(=O)[C@H](CC(C)C)N(C)S(=O)(=O)c1ccc(Cn2c(C)nc3cnccc32)cc1 [Example 53B, N-Methyl-N-4-(1H-2-methylimidazo[4,5-c]pyridylmethyl)phenylsulphonyl-L-leucine ethyl ester]	9.82	0.5 µg/kg	91%	–
COC(=O)[C@H](CC(C)C)NS(=O)(=O)c1ccc(Cn2c(C)nc3cnccc32)cc1 [Example 32B, N-4-(1H-2-methylimidazo[4,5-c]pyridylmethyl)phenylsulphonyl-L-leucine methyl ester]	8.10	2.1 µg/kg	–	15.5 µg/kg
CCOCCOC(=O)[C@H](CC(C)C)NS(=O)(=O)c1ccc(Cn2c(C)nc3ccncc32)cc1 [Example 42A, N-4-(3H-2-Methylimidazo[4,5-c]pyridylmethyl)phenylsulphonyl-L-leucine 2-ethoxyethyl ester]	8.70	–	–	–
